From patent US11389440B2, “PIM kinase inhibitors in combination with autophagy inhibitors for treatment of cancers” (UNIVERSITY OF MARYLAND, BALTIMORE COUNTY, priority 2017, dated 2022) come the findings set out here.

Assay [1] concerns acute myeloid leukemia cells (EOL1). In words: MTT assay of EOL1 cells treated with AZD1208 and chloroquine alone and in combination; CI by CompuSyn. It is filed as cell-based, human. Conditions: EOL1, 48 hours, scale 0-1. How it is done: (§1) General experimental procedure: 20,000 (EOL1) cells were seeded per well in 96-well plates. […] At 48 hours the MTT metabolism indicative of number of live cells was measured by MTT assay (Promega, Cat: G4000). The resulting values were used to evaluate the Fa (fraction affected) values, which were plugged into the CompuSyn software to calculate the combination indices (CI values) at ED50, ED75, ED90 and ED95 (ED—Effective dose of combination).
The data were analyzed using CompuSyn, an algorithm based on the Chao-Talalay method for detecting drug synergy (3).
Table 3. […] CI values were determined using CompuSyn at 50%, 75%, 90%, and 95% growth inhibition (GI) Cell growth was measured using standard 3-(4,5-dimethylthiazol-2-yl)-2,5-diphenyltetrazolium bromide (MTT) assays.
Background: Formazan colour is commonly taken as a measure of viable cells.

The next assay has as its system Molm16 cells. The assay can be described thus: Molm16 cells treated with AZD1208 in combination with autophagy inhibitors (FA values, CI values). On the set-up: key: fraction of cells affected by treatment (0–1). It is filed as cell-based. The protocol: as §1
These are values of drug dose and effect (fraction of cells affected by the treatment—FA values). The treatment time is 72 hours.
The data presented in this Table 5 is from an experiment in which Molm16 cells were treated with AZD1208 in combination with verteporfin (AZD1208 μM:verteporfin μM=1:200). These are values of drug dose and effect (fraction of cells affected by the treatment—FA values). The treatment time is 72 hours.
The data presented in this Table 6 is from an experiment in which Molm16 cells were treated with AZD1208 in combination with Bafilomycin A1 (AZD1208 μM:bafilomycin A1 μM=1:1). These are values of drug dose and effect (fraction of cells affected by the treatment—FA values). The treatment time is 48 hours.

With `N[C@@H]1CCCN(c2c(/C=C3/SC(=O)NC3=O)cccc2-c2ccccc2)C1` [AZD1208, (5E)-5-[[2-[(3R)-3-aminopiperidin-1-yl]-3-phenylphenyl]methylidene]-1,3-thiazolidine-2,4-dione], the “Effect (FA, fraction affected)” value in assay [1] (AZD1208 alone 0.05 μM) is recorded as 0.505; in assay [1] (AZD1208 alone 0.1 μM) it was 0.639; in assay [1] (AZD1208 alone 0.25 μM), 0.386. For the same compound, the “Effect (FA, fraction of cells affected)” value with Molm16 cells (AZD1208 alone 0.00625 μM, Molm16, 48 hours, Table 6) was 0.1716; in the assay with Molm16 cells (AZD1208 alone 0.0125 μM, Molm16, 48 hours, Table 6), 0.2259; with Molm16 cells (AZD1208 alone 0.0125 μM, Molm16, 72 hours, Table 4), 0.2413; in the assay with Molm16 cells (AZD1208 alone 0.025 μM, Molm16, 48 hours, Table 6) it was 0.3615; in the assay with Molm16 cells (AZD1208 alone 0.025 μM, Molm16, 72 hours, Table 4) it was 0.354; with Molm16 cells (AZD1208 alone 0.05 μM, Molm16, 72 hours, Table 4), 0.5497. The “Effect (FA, fraction of cells affected)” value with Molm16 cells (AZD1208 alone 0.05 μM, Molm16, 72 hours, Table 5) was 0.4847; in the assay with Molm16 cells (AZD1208 alone 0.1 μM, Molm16, 72 hours, Table 5), 0.6474.

With `CO/C1=C\C(C)=C\[C@@H](C)[C@@H](O)[C@@H](C)C/C(C)=C/C=C/[C@H](OC)[C@@H]([C@@H](C)[C@@H](O)[C@H](C)[C@@]2(O)C[C@@H](O)[C@H](C)[C@@H](C(C)C)O2)OC1=O` [Bafilomycin A1], the “Effect (FA, fraction of cells affected)” value in the assay on Molm16 cells (Bafilomycin A1 alone 0.00625 μM, Molm16, 48 hours) is recorded as 0.4744; in the assay with Molm16 cells (Bafilomycin A1 alone 0.0125 μM, Molm16, 48 hours) it was 0.7998; with Molm16 cells (Bafilomycin A1 alone 0.025 μM, Molm16, 48 hours), 0.8279.

On to `CCN(CC)CCCC(C)Nc1ccnc2cc(Cl)ccc12` (stereo not shown) [chloroquine], for which the “Effect (FA, fraction of cells affected)” value with Molm16 cells (chloroquine alone 10 μM, Molm16, 72 hours) is on record as 0.05357; in the assay on Molm16 cells (chloroquine alone 20 μM, Molm16, 72 hours), 0.1376; in the assay with Molm16 cells (chloroquine alone 40 μM, Molm16, 72 hours), 0.4647.

With Verteporfin, the “Effect (FA, fraction of cells affected)” value in the assay on Molm16 cells (Verteporfin alone 10 μM, Molm16, 72 hours) came to 0.08412; with Molm16 cells (Verteporfin alone 20 μM, Molm16, 72 hours), 0.2143.
